The compounds below were run against Polθ protein (amino acids 2-2590) (Homo sapiens, UniProt O75417) (assay: Polθ full length enzyme potency assay (PicoGreen)). Settings: Polθ IC50 (nM), full length N-His, C-term FLAG tagged Polθ, PicoGreen fluorescence, 12 point concentration response.
Polθ protein (amino acids 2-2590), sequence (O75417 2-2590): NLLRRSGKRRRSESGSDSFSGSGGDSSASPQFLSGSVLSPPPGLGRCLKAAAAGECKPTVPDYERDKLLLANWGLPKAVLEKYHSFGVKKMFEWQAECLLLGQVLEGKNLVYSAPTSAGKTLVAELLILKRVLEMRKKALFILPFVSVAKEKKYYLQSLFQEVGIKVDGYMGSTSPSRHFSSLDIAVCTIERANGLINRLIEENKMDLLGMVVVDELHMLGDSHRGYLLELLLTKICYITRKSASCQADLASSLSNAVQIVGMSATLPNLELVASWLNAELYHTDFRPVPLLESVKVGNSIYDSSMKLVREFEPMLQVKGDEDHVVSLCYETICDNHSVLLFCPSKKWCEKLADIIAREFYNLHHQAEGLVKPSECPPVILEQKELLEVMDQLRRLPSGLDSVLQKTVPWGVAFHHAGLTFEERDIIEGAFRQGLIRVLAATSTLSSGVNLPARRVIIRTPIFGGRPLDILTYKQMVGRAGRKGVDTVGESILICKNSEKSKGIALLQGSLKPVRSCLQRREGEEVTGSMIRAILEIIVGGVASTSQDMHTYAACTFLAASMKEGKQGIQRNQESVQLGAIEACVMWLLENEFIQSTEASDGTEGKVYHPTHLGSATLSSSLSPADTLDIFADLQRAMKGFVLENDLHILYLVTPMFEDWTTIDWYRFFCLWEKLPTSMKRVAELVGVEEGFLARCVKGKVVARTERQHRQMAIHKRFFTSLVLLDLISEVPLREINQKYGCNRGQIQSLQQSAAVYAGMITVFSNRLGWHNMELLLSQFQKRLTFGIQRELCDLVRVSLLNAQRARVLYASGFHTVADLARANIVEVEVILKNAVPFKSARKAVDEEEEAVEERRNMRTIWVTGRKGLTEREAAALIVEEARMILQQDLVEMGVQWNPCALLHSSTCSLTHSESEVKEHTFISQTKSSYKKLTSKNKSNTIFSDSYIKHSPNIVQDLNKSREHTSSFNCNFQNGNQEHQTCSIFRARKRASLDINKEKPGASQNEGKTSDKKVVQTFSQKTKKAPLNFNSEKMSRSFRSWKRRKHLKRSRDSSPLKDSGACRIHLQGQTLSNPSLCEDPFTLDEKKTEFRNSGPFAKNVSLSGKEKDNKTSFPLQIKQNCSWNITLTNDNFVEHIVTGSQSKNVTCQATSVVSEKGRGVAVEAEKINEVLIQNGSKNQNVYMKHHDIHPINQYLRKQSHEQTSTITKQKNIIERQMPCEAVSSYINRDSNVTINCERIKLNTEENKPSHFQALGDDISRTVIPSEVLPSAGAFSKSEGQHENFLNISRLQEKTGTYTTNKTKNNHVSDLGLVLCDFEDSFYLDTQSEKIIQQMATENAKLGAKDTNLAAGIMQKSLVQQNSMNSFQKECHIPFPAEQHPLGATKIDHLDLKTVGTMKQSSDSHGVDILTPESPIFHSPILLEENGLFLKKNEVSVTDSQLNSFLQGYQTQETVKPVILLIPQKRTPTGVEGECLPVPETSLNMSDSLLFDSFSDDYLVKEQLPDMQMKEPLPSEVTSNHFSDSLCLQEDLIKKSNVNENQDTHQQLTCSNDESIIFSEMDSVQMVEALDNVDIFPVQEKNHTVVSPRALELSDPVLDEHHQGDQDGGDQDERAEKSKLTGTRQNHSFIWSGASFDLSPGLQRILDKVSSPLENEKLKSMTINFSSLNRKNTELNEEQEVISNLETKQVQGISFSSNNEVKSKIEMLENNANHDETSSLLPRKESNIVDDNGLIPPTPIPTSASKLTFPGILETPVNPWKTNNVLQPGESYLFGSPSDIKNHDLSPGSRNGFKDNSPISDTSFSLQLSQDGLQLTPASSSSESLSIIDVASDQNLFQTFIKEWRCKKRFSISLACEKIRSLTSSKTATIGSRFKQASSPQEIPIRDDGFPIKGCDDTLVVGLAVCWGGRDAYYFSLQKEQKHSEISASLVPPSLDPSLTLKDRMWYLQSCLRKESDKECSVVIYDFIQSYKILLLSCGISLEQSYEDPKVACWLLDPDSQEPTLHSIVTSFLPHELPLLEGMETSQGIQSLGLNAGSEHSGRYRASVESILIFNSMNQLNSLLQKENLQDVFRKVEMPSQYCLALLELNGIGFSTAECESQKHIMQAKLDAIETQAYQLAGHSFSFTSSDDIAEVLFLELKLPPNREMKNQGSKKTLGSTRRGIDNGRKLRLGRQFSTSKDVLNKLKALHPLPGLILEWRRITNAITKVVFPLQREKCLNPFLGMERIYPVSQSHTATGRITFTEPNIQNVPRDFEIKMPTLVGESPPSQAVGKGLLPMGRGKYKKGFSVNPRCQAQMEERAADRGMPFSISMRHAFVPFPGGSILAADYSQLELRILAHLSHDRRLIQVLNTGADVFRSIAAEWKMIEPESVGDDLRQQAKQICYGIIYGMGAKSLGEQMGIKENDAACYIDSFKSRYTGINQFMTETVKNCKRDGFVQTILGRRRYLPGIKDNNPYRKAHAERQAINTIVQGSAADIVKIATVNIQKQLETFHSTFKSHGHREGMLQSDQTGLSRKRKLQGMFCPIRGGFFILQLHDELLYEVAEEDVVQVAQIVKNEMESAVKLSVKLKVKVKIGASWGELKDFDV

| SMILES | IC50 [nM] |
| --- | --- |
| Cc1cc(C(F)(F)F)c(C#N)c(N2C[C@@H](O)C[C@H]2C(=O)N(C)c2cc(F)cc(F)c2)n1 [Example 17, (2S,4S)-1-(3-Cyano-6-methyl-4-(trifluoromethyl)pyridin-2-yl)-N-(3,5-difluorophenyl)-4-hydroxy-N-methylpyrrolidine-2-carboxamide] | 97 |
| Cc1cc(C(F)(F)F)c(C#N)c(N2C[C@@H](O)C[C@H]2C(=O)N(C)c2ccc(Cl)c(F)c2)n1 [Example 18, (2S,4S)-N-(4-Chloro-3-fluorophenyl)-1-(3-cyano-6-methyl-4-(trifluoromethyl)pyridin-2-yl)-4-hydroxy-N-methyl-pyrrolidine-2-carboxamide] | 33 |
| Cc1cc(C(F)(F)F)c(C#N)c(N2C[C@@H](O)C[C@H]2C(=O)N(C)c2ccc(C(F)(F)F)c(F)c2)n1 [Example 19, (2S,4S)-1-(3-Cyano-6-methyl-4-(trifluoromethyl)pyridin-2-yl)-N-(3-fluoro-4-(trifluoromethyl)-phenyl)-4-hydroxy-N-methyl-pyrrolidine-2-carboxamide] | 524 |
| Cc1cc(C(F)(F)F)c(C#N)c(N2C[C@@H](O)C[C@H]2C(=O)N(C)c2cc(F)c(F)cc2F)n1 [Example 20, (2S,4S)-1-(3-Cyano-6-methyl-4-(trifluoromethyl)pyridin-2-yl)-4-hydroxy-N-methyl-N-(2,4,5-trifluorophenyl)pyrrolidine-2-carboxamide] | 67 |
| CCN(C(=O)[C@@H]1C[C@H](O)CN1c1nc(C)cc(C)c1C#N)c1cccc(C)c1 [Example 21, (2S,4S)-1-(3-Cyano-4,6-dimethylpyridin-2-yl)-N-ethyl-4-hydroxy-N-(m-tolyl)pyrrolidine-2-carboxamide] | 77 |
| Cc1cccc(N(C)C(=O)[C@@H]2[C@H](O)CCN2c2nc(C)cc(C(F)(F)F)c2C#N)c1 [Example 24, (2S,3R)-1-(3-Cyano-6-methyl-4-(trifluoromethyl)pyridin-2-yl)-3-hydroxy-N-methyl-N-(m-tolyl)pyrrolidine-2-carboxamide] | 9 |
| Cc1cccc(N(C)C(=O)[C@@H]2[C@H](O)CCN2c2nc(C)cc(C)c2C#N)c1 [Example 25, (2S,3R)-1-(3-Cyano-4,6-dimethylpyridin-2-yl)-3-hydroxy-N-methyl-N-(m-tolyl)pyrrolidine-2-carboxamide] | 32 |
| Cc1cccc(N(C)C(=O)[C@@H]2C[C@H](O)CN2c2cc(C(F)(F)F)cc(C)n2)c1 [Example 27, (2S,4S)-4-Hydroxy-N-methyl-1-(6-methyl-4-(trifluoromethyl)pyridin-2-yl)-N-(m-tolyl)pyrrolidine-2-carboxamide] | 12 |
| Cc1cccc(N(C)C(=O)[C@@H]2C[C@H](O)CN2c2cc(C(C)C)cc(C)n2)c1 [Example 28, (2S,4S)-4-Hydroxy-1-(4-isopropyl-6-methylpyridin-2-yl)-N-methyl-N-(m-tolyl)pyrrolidine-2-carboxamide] | 48 |
| Cc1cccc(N(C)C(=O)[C@@H]2C[C@H](O)CN2c2cc(C)c(Cl)c(C)n2)c1 [Example 29, (2S,4S)-1-(5-Chloro-4,6-dimethylpyridin-2-yl)-4-hydroxy-N-methyl-N-(m-tolyl)pyrrolidine-2-carboxamide] | 172 |
| COc1cc(C(F)(F)F)c(C#N)c(N2C[C@@H](O)C[C@H]2C(=O)N(C)c2cccc(C)c2)n1 [Example 30, (2S,4S)-1-(3-Cyano-6-methoxy-4-(trifluoromethyl)pyridin-2-yl)-4-hydroxy-N-methyl-N-(m-tolyl)pyrrolidine-2-carboxamide] | 514 |
| CCN(C)c1cc(C(F)(F)F)c(C#N)c(N2C[C@@H](O)C[C@H]2C(=O)N(C)c2cccc(C)c2)n1 [Example 31, (2S,4S)-1-(3-Cyano-6-(ethyl(methyl)amino)-4-(trifluoromethyl)pyridin-2-yl)-4-hydroxy-N-methyl-N-(m-tolyl)pyrrolidine-2-carboxamide] | 395 |
| Cc1cccc(N(C)C(=O)[C@@H]2C[C@H](O)CN2c2nc(N(C)C)cc(C(F)(F)F)c2C#N)c1 [Example 32, (2S,4S)-1-(3-Cyano-6-(dimethylamino)-4-(trifluoromethyl)pyridin-2-yl)-4-hydroxy-N-methyl-N-(m-tolyl)pyrrolidine-2-carboxamide] | 209 |
| Cc1cccc(N(C)C(=O)[C@@H]2C[C@H](O)CN2c2nc(C)cc(C(C)C)c2C#N)c1 [Example 33, (2S,4S)-1-(3-Cyano-4-isopropyl-6-methylpyridin-2-yl)-4-hydroxy-N-methyl-N-(m-tolyl)pyrrolidine-2-carboxamide] | 30 |
| CCc1cc(N2C[C@@H](O)C[C@H]2C(=O)N(C)c2cccc(C)c2)ncc1C [Example 35, (2S,4S)-1-(4-Ethyl-5-methylpyridin-2-yl)-4-hydroxy-N-methyl-N-(m-tolyl)pyrrolidine-2-carboxamide] | 620 |
| CO[C@H]1C[C@@H](C(=O)N(C)c2cccc(C)c2)N(c2nc(C)cc(C(F)(F)F)c2C#N)C1 [Example 36, (2S,4S)-1-(3-Cyano-6-methyl-4-(trifluoromethyl)pyridin-2-yl)-4-methoxy-N-methyl-N-(m-tolyl)pyrrolidine-2-carboxamide] | 48 |
| CCN(C(=O)[C@@H]1C[C@H](F)CN1c1nc(C)cc(C)c1C#N)c1ccc(F)c(F)c1 [Example 37, (2S,4S)-1-(3-Cyano-4,6-dimethylpyridin-2-yl)-N-(3,4-difluorophenyl)-N-ethyl-4-fluoropyrrolidine-2-carboxamide] | 248 |
| CCN(C(=O)[C@@H]1C[C@H](N)CN1c1nc(C)cc(C)c1C#N)c1cccc(C)c1 [Example 38, (2S,4S)-4-Amino-1-(3-cyano-4,6-dimethylpyridin-2-yl)-N-ethyl-N-(m-tolyl)pyrrolidine-2-carboxamide] | 273 |
| CCN(C(=O)[C@@H]1C[C@@H](N)CN1c1nc(C)cc(C)c1C#N)c1cccc(C)c1 [Example 40, (2S,4R)-4-Amino-1-(3-cyano-4,6-dimethylpyridin-2-yl)-N-ethyl-N-(m-tolyl)pyrrolidine-2-carboxamide] | 1760 |
| CCN(C(=O)[C@@H]1C[C@@H](N(C)C)CN1c1nc(C)cc(C)c1C#N)c1cccc(C)c1 [Example 41, (2S,4R)-1-(3-Cyano-4,6-dimethylpyridin-2-yl)-4-(dimethylamino)-N-ethyl-N-(m-tolyl)pyrrolidine-2-carboxamide] | 263 |
| CCN(C(=O)[C@@H]1C[C@H](N2CCOCC2)CN1c1nc(C)cc(C)c1C#N)c1cccc(C)c1 [Example 42, (2S,4S)-1-(3-Cyano-4,6-dimethylpyridin-2-yl)-N-ethyl-4-morpholino-N-(m-tolyl)pyrrolidine-2-carboxamide] | 25 |
| CCN(C(=O)[C@@H]1C[C@H](N(C)CCS(C)(=O)=O)CN1c1nc(C)cc(C)c1C#N)c1cccc(C)c1 [Example 46, (2S,4S)-1-(3-Cyano-4,6-dimethylpyridin-2-yl)-N-ethyl-4-(methyl(2-(methylsulfonyl)-ethyl)amino)-N-(m-tolyl)-pyrrolidine-2-carboxamide] | 227 |
| CCN(C(=O)[C@@H]1C[C@H](NC2CNC2)CN1c1nc(C)cc(C)c1C#N)c1cccc(C)c1 [Example 51, (2S,4S)-4-(Azetidin-3-ylamino)-1-(3-cyano-4,6-dimethylpyridin-2-yl)-N-ethyl-N-(m-tolyl)pyrrolidine-2-carboxamide] | 1560 |
| Cc1cccc(N(C)C(=O)[C@@H]2[C@@H](O)[C@@H](O)CN2c2nc(C)cc(C(F)(F)F)c2C#N)c1 [Example 53, (2S,3R,4S)-1-(3-Cyano-6-methyl-4-(trifluoromethyl)pyridin-2-yl)-3,4-dihydroxy-N-methyl-N-(m-tolyl)pyrrolidine-2-carboxamide] | 121 |
| Cc1cccc(N(C)C(=O)[C@@H]2[C@H](O)[C@H](O)CN2c2nc(C)cc(C(F)(F)F)c2C#N)c1 [Example 54, (2S,3S,4R)-1-(3-Cyano-6-methyl-4-(trifluoromethyl)pyridin-2-yl)-3,4-dihydroxy-N-methyl-N-(m-tolyl)pyrrolidine-2-carboxamide] | 13 |
| Cc1cccc(N(C)C(=O)[C@@H]2[C@H](O)[C@H](O)CN2c2nc(C)cc(C)c2C#N)c1 [Example 55, (2S,3S,4R)-1-(3-Cyano-4,6-dimethyl-pyridin-2-yl)-3,4-dihydroxy-N-methyl-N-(m-tolyl)-pyrrolidine-2-carboxamide] | 118 |
| CCN(C(=O)[C@@H]1[C@H](O)[C@H](O)CN1c1nc(C)cc(C(F)(F)F)c1C#N)c1ccc(F)c(F)c1 [Example 56, (2S,3S,4R)-1-(3-Cyano-6-methyl-4-(trifluoromethyl)pyridin-2-yl)-N-(3,4-difluorophenyl)-N-ethyl-3,4-dihydroxypyrrolidine-2-carboxamide] | 42 |
| CCN(C(=O)[C@@H]1[C@H](O)[C@H](O)CN1c1nc(C)cc(C(F)(F)F)c1C#N)c1ccc(F)c(Cl)c1 [Example 57, (2S,3S,4R)-N-(3-Chloro-4-fluoro-phenyl)-1-(3-cyano-6-methyl-4-(trifluoromethyl)pyridin-2-yl)-N-ethyl-3,4-dihydroxypyrrolidine-2-carboxamide] | 10 |
| Cc1cccc(N(C)C(=O)[C@@H]2CCC(=O)N2c2cc(C(F)(F)F)cc(C)n2)c1 [Example 59, (S)—N-Methyl-1-(6-methyl-4-(trifluoromethyl)pyridin-2-yl)-5-oxo-N-(m-tolyl)pyrrolidine-2-carboxamide] | 7 |

Same assay, conditions: read-out: Polθ IC50; full length N-His, C-term FLAG tagged Polθ, PicoGreen fluorescence, 12 point concentration response

| SMILES | IC50 [nM] |
| --- | --- |
| CCN(C(=O)[C@@H]1C[C@H](O)CN1c1nc(C)cc(C(F)(F)F)c1C#N)c1cccc(C)c1 [Example 22, (2S,4S)-1-(3-Cyano-6-methyl-4-(trifluoromethyl)pyridin-2-yl)-N-ethyl-4-hydroxy-N-(m-tolyl)-pyrrolidine-2-carboxamide] | 27 |
| Cc1cccc(N(C)C(=O)[C@@H]2[C@@H](O)CCN2c2nc(C)cc(C(F)(F)F)c2C#N)c1 [Example 26, (2S,3S)-1-(3-Cyano-6-methyl-4-(trifluoromethyl)pyridin-2-yl)-3-hydroxy-N-methyl-N-(m-tolyl)pyrrolidine-2-carboxamide] | 61 |
| Cc1cccc(N(C)C(=O)[C@@H]2COC(=O)N2c2cc(C(F)(F)F)cc(C)n2)c1 [Example 58, (S)—N-Methyl-3-(6-methyl-4-(trifluoromethyl)pyridin-2-yl)-2-oxo-N-(m-tolyl)oxazolidine-4-carboxamide] | 7 |
